Tested on: rat isolated uterus
Experiment: Uterotonic (oxytocic) activity on isolated uterus of stilbestrol-primed rats, compared with 5-HT
Parameters: species or system Wistar female albino rats
Settings: isolated uterus horn of stilbestrol dipropionate (1 mg/kg i.p., 24 h) pre-treated rats, de Jalon's solution
Description: The above two samples were assayed for their effect on Uterotonic activity using Wistar female albino rats.
The uterotonic property of the test extracts were assessed in two test areas.
1. The oxytocic activity of the Sample A and Sample B is compared with uterine stimulant 5-HT.
Female rats weighing between 150-200 g were pre-treated with stilbestrol dipropionate, 1 mg/kg intra peritoneally 24 h prior to the experiment. The rats were killed by a swift blow on the head and exsanguinated. The uterus of rat dissected and the two horns divided. One horn is suspended in the bath. The rhythmic contractions are abolished by using de jalon's solution. When the spontaneous contractions became regular, the responses to Extracts of Sample A and Sample B and other agonists were recorded using a Frontal lever, isometrically connected to a polygraph.

SMILES: CN1CC(=O)N=C1N.NCCc1c[nH]c2ccc(O)cc12.O=S(=O)(O)O [Formulation 5-HT, 5-hydroxytryptamine creatinine sulphate]
- In-vitro treatment (uterine contraction): 1. The control drug 5-HT induced a dose related increase in the height of contraction of rat isolated uterus. and Uterine contraction
